Reference: ChEMBL document CHEMBL4507269, “Data for DCP probe BAY-386” (2021)

What was measured:
[1] = target: 5-hydroxytryptamine receptor 6 (Homo sapiens) (UniProt P50406); test: 5-HT6 (h) Eurofins-Cerep Cellular and Nuclear Receptor Functional Assays; conditions: Compound concentration 10.0 uM
[2] = test system: Tyrosine-protein kinase ABL1 (Homo sapiens), P00519 [Q252H]; conditions: Compound concentration 1000.0 nM
[3] = target: Activin receptor type-2A (Homo sapiens) (UniProt P27037); conditions: Compound concentration 1000.0 nM
[4] = target: Atypical kinase COQ8B, mitochondrial (Homo sapiens) (UniProt Q96D53); conditions: Compound concentration 1000.0 nM
[5] = target: Tyrosine-protein kinase BTK (Homo sapiens) (UniProt Q06187); conditions: Compound concentration 1000.0 nM
[6] = target: Calcium/calmodulin-dependent protein kinase type 1B (Homo sapiens) (UniProt Q6P2M8); conditions: Compound concentration 1000.0 nM
[7] = target: Calcium/calmodulin-dependent protein kinase type II subunit gamma (Homo sapiens) (UniProt Q13555); conditions: Compound concentration 1000.0 nM
[8] = target: Citron Rho-interacting kinase (Homo sapiens) (UniProt O14578); conditions: Compound concentration 1000.0 nM
[9] = target: Serine/threonine-protein kinase 17B (Homo sapiens) (UniProt O94768); conditions: Compound concentration 1000.0 nM
[10] = target: Epidermal growth factor receptor (Homo sapiens) (UniProt P00533); conditions: Compound concentration 1000.0 nM
[11] = test system: Epidermal growth factor receptor (Homo sapiens), P00533 [UNDEFINED MUTATION]; conditions: Compound concentration 1000.0 nM
Chain of Epidermal growth factor receptor (Homo sapiens), P00533 [UNDEFINED MUTATION] (P00533 whole entry, looked up, change not shown): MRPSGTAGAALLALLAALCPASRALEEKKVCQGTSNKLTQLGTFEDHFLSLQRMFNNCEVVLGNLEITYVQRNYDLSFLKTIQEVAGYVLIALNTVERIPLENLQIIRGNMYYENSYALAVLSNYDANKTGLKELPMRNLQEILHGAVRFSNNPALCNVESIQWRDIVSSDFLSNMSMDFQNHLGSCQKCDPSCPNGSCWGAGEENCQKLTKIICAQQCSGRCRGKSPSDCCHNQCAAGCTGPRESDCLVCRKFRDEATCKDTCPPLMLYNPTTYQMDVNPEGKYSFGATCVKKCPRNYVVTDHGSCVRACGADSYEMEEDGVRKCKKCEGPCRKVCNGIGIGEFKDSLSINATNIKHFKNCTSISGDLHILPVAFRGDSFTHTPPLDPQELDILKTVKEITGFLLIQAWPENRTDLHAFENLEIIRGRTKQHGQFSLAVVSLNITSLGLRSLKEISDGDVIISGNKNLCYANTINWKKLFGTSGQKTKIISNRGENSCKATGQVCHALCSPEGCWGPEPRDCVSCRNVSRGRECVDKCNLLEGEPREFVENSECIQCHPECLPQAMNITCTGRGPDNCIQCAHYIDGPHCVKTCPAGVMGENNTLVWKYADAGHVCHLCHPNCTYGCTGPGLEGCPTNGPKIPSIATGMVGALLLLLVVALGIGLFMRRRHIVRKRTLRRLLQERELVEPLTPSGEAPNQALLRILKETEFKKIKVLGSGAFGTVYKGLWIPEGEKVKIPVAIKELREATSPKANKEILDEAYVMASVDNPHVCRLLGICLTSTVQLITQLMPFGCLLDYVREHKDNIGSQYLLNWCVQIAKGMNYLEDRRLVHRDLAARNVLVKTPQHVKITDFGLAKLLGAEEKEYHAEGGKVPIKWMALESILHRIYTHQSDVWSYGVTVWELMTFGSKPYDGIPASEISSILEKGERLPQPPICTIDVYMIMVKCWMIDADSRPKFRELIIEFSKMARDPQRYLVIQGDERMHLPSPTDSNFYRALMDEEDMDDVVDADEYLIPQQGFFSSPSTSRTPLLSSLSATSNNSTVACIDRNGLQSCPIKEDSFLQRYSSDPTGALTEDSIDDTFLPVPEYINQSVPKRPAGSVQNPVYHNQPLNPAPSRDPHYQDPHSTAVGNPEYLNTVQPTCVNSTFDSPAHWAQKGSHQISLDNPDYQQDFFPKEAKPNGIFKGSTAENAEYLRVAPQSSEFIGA

[12] = test system: Epidermal growth factor receptor (Homo sapiens), P00533 [UNDEFINED MUTATION]; conditions: Compound concentration 1000.0 nM; remark: listed apart in the source
[13] = target: Eukaryotic translation initiation factor 2-alpha kinase 1 (Homo sapiens) (UniProt Q9BQI3); conditions: Compound concentration 1000.0 nM
[14] = target: Ephrin type-A receptor 7 (Homo sapiens) (UniProt Q15375); conditions: Compound concentration 1000.0 nM
[15] = target: Tyrosine-protein kinase Fer (Homo sapiens) (UniProt P16591); conditions: Compound concentration 1000.0 nM
[16] = target: Homeodomain-interacting protein kinase 4 (Homo sapiens) (UniProt Q8NE63); conditions: Compound concentration 1000.0 nM
Chain of Homeodomain-interacting protein kinase 4 (Homo sapiens) (Q8NE63 whole entry): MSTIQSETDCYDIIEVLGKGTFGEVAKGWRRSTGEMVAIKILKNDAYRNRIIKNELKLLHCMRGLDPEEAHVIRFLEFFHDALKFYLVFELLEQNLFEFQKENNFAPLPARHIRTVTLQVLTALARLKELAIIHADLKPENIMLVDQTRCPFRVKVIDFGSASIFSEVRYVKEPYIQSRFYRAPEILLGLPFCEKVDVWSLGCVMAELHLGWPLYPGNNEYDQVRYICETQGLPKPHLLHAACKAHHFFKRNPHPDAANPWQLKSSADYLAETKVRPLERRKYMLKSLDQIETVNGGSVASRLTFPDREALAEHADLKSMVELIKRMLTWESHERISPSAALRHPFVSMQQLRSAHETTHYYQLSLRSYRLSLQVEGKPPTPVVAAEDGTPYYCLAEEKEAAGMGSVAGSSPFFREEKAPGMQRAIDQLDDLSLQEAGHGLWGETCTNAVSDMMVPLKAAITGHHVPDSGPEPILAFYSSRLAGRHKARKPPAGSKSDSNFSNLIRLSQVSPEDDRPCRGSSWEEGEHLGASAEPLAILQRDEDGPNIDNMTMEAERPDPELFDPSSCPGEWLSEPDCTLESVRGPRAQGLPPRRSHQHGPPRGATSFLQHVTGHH

[17] = target: Insulin-like growth factor 1 receptor (Homo sapiens) (UniProt P08069); conditions: Compound concentration 1000.0 nM
[18] = target: Mast/stem cell growth factor receptor Kit (Homo sapiens) (UniProt P10721); conditions: Compound concentration 1000.0 nM
Chain of Mast/stem cell growth factor receptor Kit (Homo sapiens) (P10721 whole entry): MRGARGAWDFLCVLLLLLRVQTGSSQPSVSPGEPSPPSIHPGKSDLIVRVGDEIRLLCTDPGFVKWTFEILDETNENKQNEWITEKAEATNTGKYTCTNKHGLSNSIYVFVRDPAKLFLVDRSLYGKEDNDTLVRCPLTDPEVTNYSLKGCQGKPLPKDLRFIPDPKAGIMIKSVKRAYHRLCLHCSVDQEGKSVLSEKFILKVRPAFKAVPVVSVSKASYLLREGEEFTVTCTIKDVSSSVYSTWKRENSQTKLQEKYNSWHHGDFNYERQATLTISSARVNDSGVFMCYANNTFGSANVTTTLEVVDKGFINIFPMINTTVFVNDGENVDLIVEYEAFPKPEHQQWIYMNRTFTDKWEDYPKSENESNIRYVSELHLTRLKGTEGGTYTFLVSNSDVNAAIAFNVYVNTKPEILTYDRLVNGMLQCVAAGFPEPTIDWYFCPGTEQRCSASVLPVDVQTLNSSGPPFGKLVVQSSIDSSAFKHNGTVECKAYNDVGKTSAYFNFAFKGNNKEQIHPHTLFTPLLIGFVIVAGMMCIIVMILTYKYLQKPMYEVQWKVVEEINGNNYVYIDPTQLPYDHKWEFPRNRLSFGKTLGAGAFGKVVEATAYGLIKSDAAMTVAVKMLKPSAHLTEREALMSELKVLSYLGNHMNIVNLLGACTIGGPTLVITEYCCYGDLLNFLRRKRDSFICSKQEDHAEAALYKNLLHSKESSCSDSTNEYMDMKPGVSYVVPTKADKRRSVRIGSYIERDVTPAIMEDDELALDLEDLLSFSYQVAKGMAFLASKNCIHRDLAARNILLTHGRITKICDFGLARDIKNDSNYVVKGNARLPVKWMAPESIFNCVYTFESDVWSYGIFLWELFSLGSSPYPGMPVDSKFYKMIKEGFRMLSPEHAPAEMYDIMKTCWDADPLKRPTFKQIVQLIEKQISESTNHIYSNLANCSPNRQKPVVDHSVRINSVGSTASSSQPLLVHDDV

[19] = target: Serine/threonine-protein kinase LATS2 (Homo sapiens) (UniProt Q9NRM7); conditions: Compound concentration 1000.0 nM
[20] = target: Leukocyte tyrosine kinase receptor (Homo sapiens) (UniProt P29376); conditions: Compound concentration 1000.0 nM
[21] = target: MAP/microtubule affinity-regulating kinase 4 (Homo sapiens) (UniProt Q96L34); conditions: Compound concentration 1000.0 nM
[22] = target: Tyrosine-protein kinase Mer (Homo sapiens) (UniProt Q12866); conditions: Compound concentration 1000.0 nM
[23] = test system: Hepatocyte growth factor receptor (Homo sapiens), P08581 [Y1235D]; conditions: Compound concentration 1000.0 nM
[24] = target: Serine/threonine-protein kinase Nek3 (Homo sapiens) (UniProt P51956); conditions: Compound concentration 1000.0 nM
[25] = test system: Phosphatidylinositol 4,5-bisphosphate 3-kinase catalytic subunit alpha isoform (Homo sapiens), P42336 [H1047L]; conditions: Compound concentration 1000.0 nM
[26] = test system: Phosphatidylinositol 4,5-bisphosphate 3-kinase catalytic subunit alpha isoform (Homo sapiens), P42336 [M1043I]; conditions: Compound concentration 1000.0 nM
[27] = target: Serine/threonine-protein kinase pim-2 (Homo sapiens) (UniProt Q9P1W9); conditions: Compound concentration 1000.0 nM
[28] = target: cGMP-dependent protein kinase 2 (Homo sapiens) (UniProt Q13237); conditions: Compound concentration 1000.0 nM
[29] = target: Rho-associated protein kinase 2 (Homo sapiens) (UniProt O75116); conditions: Compound concentration 1000.0 nM
Chain of Rho-associated protein kinase 2 (Homo sapiens) (O75116 whole entry, looked up): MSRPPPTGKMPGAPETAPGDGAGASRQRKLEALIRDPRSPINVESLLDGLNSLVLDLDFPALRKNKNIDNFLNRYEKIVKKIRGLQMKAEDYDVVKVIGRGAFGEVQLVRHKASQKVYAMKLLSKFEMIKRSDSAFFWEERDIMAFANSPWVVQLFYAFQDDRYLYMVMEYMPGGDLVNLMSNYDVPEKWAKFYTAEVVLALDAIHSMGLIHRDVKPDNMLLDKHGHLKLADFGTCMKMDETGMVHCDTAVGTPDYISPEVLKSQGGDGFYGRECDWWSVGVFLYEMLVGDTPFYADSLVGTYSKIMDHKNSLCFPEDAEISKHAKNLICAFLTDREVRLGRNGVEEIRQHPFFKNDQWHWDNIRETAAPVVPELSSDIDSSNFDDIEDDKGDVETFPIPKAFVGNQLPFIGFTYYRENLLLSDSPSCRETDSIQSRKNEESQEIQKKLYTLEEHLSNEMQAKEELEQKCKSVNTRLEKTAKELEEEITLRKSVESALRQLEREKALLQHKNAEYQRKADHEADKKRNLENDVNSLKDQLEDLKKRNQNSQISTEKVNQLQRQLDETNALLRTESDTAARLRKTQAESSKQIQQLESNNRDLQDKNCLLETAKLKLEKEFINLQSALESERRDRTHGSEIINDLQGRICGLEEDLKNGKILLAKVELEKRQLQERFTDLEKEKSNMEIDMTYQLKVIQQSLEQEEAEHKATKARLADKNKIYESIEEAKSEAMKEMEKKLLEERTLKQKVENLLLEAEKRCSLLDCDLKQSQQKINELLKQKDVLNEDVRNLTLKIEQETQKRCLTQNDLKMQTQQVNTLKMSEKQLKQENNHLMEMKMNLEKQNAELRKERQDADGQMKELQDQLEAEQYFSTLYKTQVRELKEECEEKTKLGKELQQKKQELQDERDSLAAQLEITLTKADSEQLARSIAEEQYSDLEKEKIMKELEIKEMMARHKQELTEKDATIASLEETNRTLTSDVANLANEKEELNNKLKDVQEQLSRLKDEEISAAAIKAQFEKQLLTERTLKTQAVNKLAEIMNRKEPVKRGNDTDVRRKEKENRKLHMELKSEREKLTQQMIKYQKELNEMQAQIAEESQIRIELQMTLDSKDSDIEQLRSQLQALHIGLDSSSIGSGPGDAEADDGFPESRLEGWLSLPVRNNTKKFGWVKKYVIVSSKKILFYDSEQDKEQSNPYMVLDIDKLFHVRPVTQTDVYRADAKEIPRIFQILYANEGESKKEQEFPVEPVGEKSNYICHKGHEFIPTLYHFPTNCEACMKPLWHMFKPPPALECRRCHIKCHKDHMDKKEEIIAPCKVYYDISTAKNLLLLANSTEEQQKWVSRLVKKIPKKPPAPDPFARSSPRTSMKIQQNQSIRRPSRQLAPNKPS

[30] = target: Serine/threonine-protein kinase 16 (Homo sapiens) (UniProt O75716); conditions: Compound concentration 1000.0 nM
[31] = target: Serine/threonine-protein kinase 33 (Homo sapiens) (UniProt Q9BYT3); conditions: Compound concentration 1000.0 nM
[32] = target: Serine/threonine-protein kinase TAO2 (Homo sapiens) (UniProt Q9UL54); conditions: Compound concentration 1000.0 nM
[33] = target: Tyrosine-protein kinase TXK (Homo sapiens) (UniProt P42681); conditions: Compound concentration 1000.0 nM
[34] = target: Serine/threonine-protein kinase VRK2 (Homo sapiens) (UniProt Q86Y07); conditions: Compound concentration 1000.0 nM
[35] = target: Serine/threonine-protein kinase WNK3 (Homo sapiens) (UniProt Q9BYP7); conditions: Compound concentration 1000.0 nM
[36] = target: Serine/threonine-protein kinase 32B (Homo sapiens) (UniProt Q9NY57); conditions: Compound concentration 1000.0 nM
Chain of Serine/threonine-protein kinase 32B (Homo sapiens) (Q9NY57 whole entry): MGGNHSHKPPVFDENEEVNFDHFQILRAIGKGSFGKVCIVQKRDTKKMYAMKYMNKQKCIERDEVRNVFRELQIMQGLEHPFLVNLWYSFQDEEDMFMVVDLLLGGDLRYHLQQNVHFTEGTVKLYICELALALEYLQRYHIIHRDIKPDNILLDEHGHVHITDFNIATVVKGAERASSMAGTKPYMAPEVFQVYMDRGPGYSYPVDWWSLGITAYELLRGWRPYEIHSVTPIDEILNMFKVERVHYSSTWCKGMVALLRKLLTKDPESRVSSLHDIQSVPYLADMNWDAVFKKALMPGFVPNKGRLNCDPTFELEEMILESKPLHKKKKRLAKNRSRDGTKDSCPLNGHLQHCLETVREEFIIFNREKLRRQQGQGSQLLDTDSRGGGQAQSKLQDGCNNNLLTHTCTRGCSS

[37] = target: Mitogen-activated protein kinase kinase kinase 19 (Homo sapiens) (UniProt Q56UN5); conditions: Compound concentration 1000.0 nM
[38] = target: T1, Muscarinic acetylcholine receptor M1 (Homo sapiens) (UniProt P11229); conditions: Compound concentration 10.0 uM
T1 sequence (whole entry): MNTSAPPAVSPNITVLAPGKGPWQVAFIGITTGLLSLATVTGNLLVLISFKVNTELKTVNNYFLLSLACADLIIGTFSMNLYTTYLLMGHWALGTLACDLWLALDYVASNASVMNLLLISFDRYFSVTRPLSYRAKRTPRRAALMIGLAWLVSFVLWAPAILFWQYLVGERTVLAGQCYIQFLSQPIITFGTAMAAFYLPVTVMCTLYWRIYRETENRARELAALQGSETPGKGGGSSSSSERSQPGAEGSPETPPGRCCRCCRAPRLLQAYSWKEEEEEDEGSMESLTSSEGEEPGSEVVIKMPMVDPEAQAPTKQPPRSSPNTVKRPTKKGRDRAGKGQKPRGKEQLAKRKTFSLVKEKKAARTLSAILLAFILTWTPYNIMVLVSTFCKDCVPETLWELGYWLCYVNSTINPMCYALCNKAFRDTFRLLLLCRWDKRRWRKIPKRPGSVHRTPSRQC

Chain of 5-hydroxytryptamine receptor 6 (Homo sapiens) (P50406 whole entry): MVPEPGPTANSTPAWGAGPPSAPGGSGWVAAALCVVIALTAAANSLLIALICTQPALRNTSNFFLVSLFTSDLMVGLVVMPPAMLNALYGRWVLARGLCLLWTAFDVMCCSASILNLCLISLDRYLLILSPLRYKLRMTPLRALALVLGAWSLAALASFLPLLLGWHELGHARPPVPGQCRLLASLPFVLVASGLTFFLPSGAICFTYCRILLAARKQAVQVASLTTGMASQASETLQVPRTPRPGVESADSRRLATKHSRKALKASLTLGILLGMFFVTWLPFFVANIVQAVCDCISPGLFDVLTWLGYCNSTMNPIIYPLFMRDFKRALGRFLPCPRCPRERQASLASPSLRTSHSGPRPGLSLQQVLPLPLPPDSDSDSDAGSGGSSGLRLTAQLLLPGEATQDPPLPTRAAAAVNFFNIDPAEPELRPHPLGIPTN

**Q.** O=C(N1CCS(=O)(=O)CC1)N1C[C@H](c2ccc(OC(F)(F)F)cc2)C[C@H](c2nc(C3CC3)no2)C1 [BAY-386] was tested. Which % Inhibition of Control Agonist Response (Mean n=2) [1] did it give?
**A.** Its % Inhibition of Control Agonist Response (Mean n=2) is 21.1%.

**Q.** And the % of Control Agonist Response (Mean n=2) [1]?
**A.** The % of Control Agonist Response (Mean n=2) was 2.8%.

**Q.** What about the residual activity [2] of the same compound?
**A.** Its residual activity is 100%.

**Q.** And the residual activity [3]?
**A.** Its residual activity is 98%.

**Q.** And the residual activity [4]?
**A.** The residual activity was 73%.

**Q.** And the residual activity [5]?
**A.** The residual activity was 100%.

**Q.** And the residual activity [6]?
**A.** Its residual activity is 100%.

**Q.** What about the residual activity [7] of the same compound?
**A.** The residual activity was 100%.

**Q.** And the residual activity [8]?
**A.** Its residual activity is 100%.

**Q.** What about the residual activity [9] of the same compound?
**A.** The residual activity was 100%.

**Q.** What about the residual activity [10] of the same compound?
**A.** Its residual activity is 100%.

**Q.** And the residual activity [11]?
**A.** The residual activity was 92%.

**Q.** What about the residual activity [12] of the same compound?
**A.** The residual activity was 100%.

**Q.** And the residual activity [13]?
**A.** Its residual activity is 90%.

**Q.** What about the residual activity [14] of the same compound?
**A.** Its residual activity is 96%.

**Q.** What about the residual activity [15] of the same compound?
**A.** Its residual activity is 100%.

**Q.** What about the residual activity [16] of the same compound?
**A.** The residual activity was 85%.

**Q.** What about the residual activity [17] of the same compound?
**A.** Its residual activity is 100%.

**Q.** And the residual activity [18]?
**A.** The residual activity was 100%.

**Q.** What about the residual activity [19] of the same compound?
**A.** The residual activity was 100%.

**Q.** And the residual activity [20]?
**A.** Its residual activity is 100%.

**Q.** What about the residual activity [21] of the same compound?
**A.** The residual activity was 100%.

**Q.** What about the residual activity [22] of the same compound?
**A.** Its residual activity is 100%.

**Q.** What about the residual activity [23] of the same compound?
**A.** The residual activity was 100%.

**Q.** What about the residual activity [24] of the same compound?
**A.** The residual activity was 100%.

**Q.** And the residual activity [25]?
**A.** The residual activity was 100%.

**Q.** And the residual activity [26]?
**A.** The residual activity was 100%.

**Q.** And the residual activity [27]?
**A.** The residual activity was 100%.

**Q.** And the residual activity [28]?
**A.** Its residual activity is 100%.

**Q.** And the residual activity [29]?
**A.** Its residual activity is 98%.

**Q.** And the residual activity [30]?
**A.** The residual activity was 100%.

**Q.** And the residual activity [31]?
**A.** The residual activity was 99%.

**Q.** What about the residual activity [32] of the same compound?
**A.** Its residual activity is 100%.

**Q.** What about the residual activity [33] of the same compound?
**A.** Its residual activity is 100%.

**Q.** And the residual activity [34]?
**A.** Its residual activity is 90%.

**Q.** What about the residual activity [35] of the same compound?
**A.** The residual activity was 99%.

**Q.** What about the residual activity [36] of the same compound?
**A.** Its residual activity is 100%.

**Q.** What about the residual activity [37] of the same compound?
**A.** Its residual activity is 58%.

**Q.** And the inhibition [38]?
**A.** Its inhibition is 2.07%.

**Q.** How did the % Inhibition of Control Agonist Response (Mean n=2) [1] turn out when Cc1noc([C@H]2C[C@@H](c3ccc(C(F)(F)F)cc3)CN(C(=O)N3CCS(=O)(=O)C3)C2)n1 [BAY-448] was run?
**A.** Its % Inhibition of Control Agonist Response (Mean n=2) is 2.1%.

**Q.** And the % of Control Agonist Response (Mean n=2) [1]?
**A.** The % of Control Agonist Response (Mean n=2) was 1.4%.

**Q.** And the residual activity [2]?
**A.** Its residual activity is 100%.

**Q.** What about the residual activity [3] of the same compound?
**A.** Its residual activity is 100%.

**Q.** And the residual activity [4]?
**A.** Its residual activity is 100%.

**Q.** And the residual activity [5]?
**A.** The residual activity was 96%.

**Q.** And the residual activity [6]?
**A.** The residual activity was 100%.

**Q.** What about the residual activity [7] of the same compound?
**A.** Its residual activity is 100%.

**Q.** And the residual activity [8]?
**A.** Its residual activity is 98%.

**Q.** And the residual activity [9]?
**A.** Its residual activity is 100%.

**Q.** What about the residual activity [10] of the same compound?
**A.** Its residual activity is 100%.

**Q.** And the residual activity [11]?
**A.** Its residual activity is 67%.

**Q.** What about the residual activity [12] of the same compound?
**A.** The residual activity was 78%.

**Q.** What about the residual activity [13] of the same compound?
**A.** Its residual activity is 100%.

**Q.** And the residual activity [14]?
**A.** Its residual activity is 100%.

**Q.** What about the residual activity [15] of the same compound?
**A.** The residual activity was 82%.

**Q.** What about the residual activity [16] of the same compound?
**A.** The residual activity was 100%.

**Q.** And the residual activity [17]?
**A.** Its residual activity is 100%.

**Q.** What about the residual activity [18] of the same compound?
**A.** Its residual activity is 100%.

**Q.** What about the residual activity [19] of the same compound?
**A.** Its residual activity is 100%.

**Q.** What about the residual activity [20] of the same compound?
**A.** The residual activity was 100%.

**Q.** What about the residual activity [21] of the same compound?
**A.** The residual activity was 84%.

**Q.** And the residual activity [22]?
**A.** Its residual activity is 100%.

**Q.** What about the residual activity [23] of the same compound?
**A.** Its residual activity is 100%.

**Q.** And the residual activity [24]?
**A.** Its residual activity is 73%.

**Q.** What about the residual activity [25] of the same compound?
**A.** Its residual activity is 100%.

**Q.** And the residual activity [26]?
**A.** The residual activity was 100%.

**Q.** What about the residual activity [27] of the same compound?
**A.** The residual activity was 100%.

**Q.** What about the residual activity [28] of the same compound?
**A.** The residual activity was 100%.

**Q.** And the residual activity [29]?
**A.** Its residual activity is 100%.

**Q.** And the residual activity [30]?
**A.** The residual activity was 100%.

**Q.** And the residual activity [31]?
**A.** The residual activity was 100%.

**Q.** And the residual activity [32]?
**A.** Its residual activity is 76%.

**Q.** What about the residual activity [33] of the same compound?
**A.** The residual activity was 92%.

**Q.** And the residual activity [34]?
**A.** The residual activity was 91%.

**Q.** What about the residual activity [35] of the same compound?
**A.** The residual activity was 76%.

**Q.** What about the residual activity [36] of the same compound?
**A.** Its residual activity is 68%.

**Q.** And the residual activity [37]?
**A.** The residual activity was 77%.

**Q.** And the inhibition [38]?
**A.** Its inhibition is -7.31%.
